Test results: patent US10519098B2, “Aromatic derivatives as anti-malarial” (Council of Scientific & Industrial Research, priority 2014, dated 2019)
Several values for one entry are separate records, joined by “and”; a condition that tells them apart may be missing. Equal entries are not always repeated. Where two headings read alike, the source gives them in different places.

Experiments:
[1] = system: chloroquine resistant P. yoelii (N-67); assay: In vivo evaluation in P. yoelii (N-67) Swiss mice model; settings: one value per mouse
Description: The molecules were tested at 100 mg/kg dose through intraperitoneal route. The mice received infective inoculum containing 1×10^5 parasites on day 0 and then received four doses of test compound on day 0-3 once daily. Five infected mice were used for each molecule and five infected mice were kept as untreated control. Arteether (5 mg/kg, ×4, intramuscular) was used as positive control. Thin blood smear from tail blood of each mouse was prepared on day 4. The blood smears were fixed in methanol, stained with Giemsa's stain and examined under the light microscope (100×oil immersion). At least 10-15 fields per smear were scanned to obtain percent parasitaemia in treated as well as untreated mice. If significant suppression in percent parasitaemia is observed on day 4, the monitoring continues up to day 28.

[2] = system: Chloroquine-resistant (K1) strain of P. falciparum; assay: Malaria SYBR Green I-based fluorescence (MSF) assay, K1 strain; format: cell-based; settings: Plasmodium falciparum
Description: (§1) The stock (5 mg/mL or 10 mM) solutions of extracts were prepared in DMSO and required dilutions were made in culture medium.
(§2) Two-fold serial dilutions of test samples were made in 96 well plates and incubated with 1.0% parasitized cell suspension containing 0.8% parasitaemia (Asynchronous culture with more than 80% ring stages). The plates were incubated at 37° C. in CO2 incubator in an atmosphere of 5% CO2 and air mixture. 72 hours later 100 μL of lysis buffer containing 2× concentration of SYBR Green-I (Invitrogen) was added to each well and incubated for one hour at 37° C. The plates were examined at 485±20 nm of excitation and 530±20 nm of emission for relative fluorescence units (RFUs) per well using the fluorescence plate reader (FLX800, BIOTEK). IC50 values were obtained by Logit regression analysis of dose response curves (Singh et al. 2011).

in vitro = settings: monkey
Description: (§3) The cells were incubated with test sample dilutions for 72 h and MTT was used as reagent for detection of cytotoxicity. Podophyllotoxin (SIGMA) was used as the standard reference drug.

[3] = system: Plasmodium falciparum D(6) clone; settings: J Nat Prod. 2004, 67(1), 88-90; read-out: IC(50) against Plasmodium falciparum D(6) clone; cited from earlier work
[4] = system: Chloroquine-sensitive (3D7) strain of P. falciparum; assay: Malaria SYBR Green I-based fluorescence (MSF) assay, 3D7 strain; format: cell-based; settings: Plasmodium falciparum
Description: as §1, §2

P. falciparum W(2) clone = settings: J Nat Prod. 2004, 67(1), 88-90; read-out: IC(50) against P. falciparum W(2) clone; cited from earlier work
[5] = system: Vero cell line (C1008; Monkey kidney fibroblast); assay: in vitro; settings: 72 h
Description: as §3

[6] = system: multidrug resistant human nasopharyngeal carcinoma (KB); settings: when used with vincristine; Bioorg. Med. Chem. Lett. 2012, 22 (24), 7726-7729; cited from earlier work
[7] = K1, range given for listed compounds, read-out: IC50 values against K1 culture
[8] = P. falciparum K1, 72 hours incubation, read-out: IC50 against K1
[9] = 100 mg/kg intraperitoneal, four doses day 0-3 once daily
[10] = 3D7, range given for listed compounds, read-out: IC50 values against 3D7 culture
[11] = P. falciparum 3D7, 72 hours incubation, read-out: IC50 against 3D7

melting point [°C]	IC50 [2, 7] [µM]	IC50 [2, 8] [µM]	IC50 [4, 10] [µM]	IC50 [4, 11] [µM]	SMILES	% parasitaemia on day 4 in 5 individual mice ([1]; positive control, 5 mg/kg ×4 intramuscular) [%]	CC50 at 72 h (in vitro) [µM]	% parasitaemia on day 4 in 5 individual mice [1, 9]	IC50 [3] [µM]	IC50 (P. falciparum W(2) clone) [µM]	CC50 [5] [µM]	chemoreversal activity, fold more active than verapamil [6] [fold]
–	–	–	–	–	CCO[C@H]1O[C@@H]2O[C@@]3(C)CC[C@H]4[C@H](C)CC[C@@H]([C@H]1C)[C@@]24OO3 [Arteether, reference compound]	0.0	–	–	–	–	–	–
132 to 135	1.5 to 4	2.56	2 to 7	3.9	COc1ccc([C@@H](CNC(=O)/C=C/c2ccccc2)OC(=O)/C=C/c2ccccc2)cc1OC [Compound 1, (S)-2-cinnamamido-1-(3,4-dimethoxyphenyl)ethyl cinnamate]	–	80.7	09.50% and 13.76% and 11.93% and 11.72% and 13.20%	2.04	3.06	–	–
138 to 140	1.5 to 4	1.78	2 to 7	3.16	COc1ccc([C@@H](CNC(=O)/C=C/c2cc(OC)c(OC)c(OC)c2)OC(=O)/C=C/c2cc(OC)c(OC)c(OC)c2)cc1OC [Compound 41, (S)-1-(3,4-dimethoxyphenyl)-2-((E)-3-(3,4,5-trimethoxyphenyl)acrylamido)ethyl (E)-3-(3,4,5-trimethoxyphenyl)acrylate]	–	88	11.78% and 11.93% and 11.12% and 11.26% and 12.13%	–	–	–	–
138 to 140	1.5 to 4	2.07	2 to 7	2.28	COc1ccc([C@H](CNC(=O)/C=C/c2cc(OC)c(OC)c(OC)c2)OC(=O)/C=C/c2cc(OC)c(OC)c(OC)c2)cc1OC [Compound 42, (R)-1-(3,4-dimethoxyphenyl)-2-((E)-3-(3,4,5-trimethoxyphenyl)acrylamido)ethyl (E)-3-(3,4,5-trimethoxyphenyl)acrylate]	–	88.9	14.07% and 12.50% and 15.10% and 12.16% and 11.46%	–	–	–	–
120 to 121	–	> 10	–	> 10	O=C(/C=C/c1ccccc1)OC[C@@H](OC(=O)/C=C/c1ccccc1)c1ccc2ccccc2c1 [Compound 53, (S)-1-(naphthalen-2-yl)ethane-1,2-diyl (2E,2′E)-bis(3-phenylacrylate)]	–	–	–	–	–	> 200	–
123 to 124	–	2.15	–	> 10	O=C(/C=C/c1ccccc1)OC[C@H](OC(=O)/C=C/c1ccccc1)c1ccc2ccccc2c1 [Compound 54, (R)-1-(naphthalen-2-yl)ethane-1,2-diyl (2E,2′E)-bis (3-phenylacrylate)]	–	–	–	–	–	181	–
–	1.5 to 4	2.62	2 to 7	2.34	COc1ccc([C@@H](COC(=O)/C=C/c2cc(OC)c(OC)c(OC)c2)OC(=O)/C=C/c2cc(OC)c(OC)c(OC)c2)cc1OC [Compound 56, (S)-1-(3,4-dimethoxyphenyl)ethane-1,2-diyl(2E,2′E)-bis(3-(3,4,5-trimethoxyphenyl)acrylate)]	–	55.7	06.06% and 08.31% and 16.23% and 13.92% and 11.13%	–	–	–	–
67 to 69	1.5 to 4	1.93	2 to 7	1.89	COc1cc(/C=C/C(=O)NC[C@@H](OC(=O)/C=C/c2cc(OC)c(OC)c(OC)c2)c2cc(OC)c(OC)c(OC)c2)cc(OC)c1OC [Compound 58, (S)-1-(3,4,5-trimethoxyphenyl)-2-((E)-3-(3,4,5-trimethoxyphenyl)acrylamido)ethyl (E)-3-(3,4,5-trimethoxyphenyl)acrylate]	–	42.7	10.10% and 10.16% and 13.50% and 07.50% and 11.92%	–	–	–	–
–	–	–	–	–	COc1cc(C(=O)OCC(OC(=O)c2cc(OC)c(OC)c(OC)c2)c2cc(OC)c(OC)c(OC)c2)cc(OC)c1OC (stereo not shown) [bis-trimethoxybenzoyl derivative]	–	–	–	–	–	–	340
